This series in a line: activity coefficient (dimensionless); of the first substance listed, at infinite dilution; xn = mol fraction of the nth substance listed. Conditions: 101 kPa, Liquid, Chromatography, x1 = 0.

Several values for one entry are separate records, joined by “and”; a condition that tells them apart may be missing. Equal entries are not always repeated. Numbers after ± are expanded uncertainties.

From the NIST ThermoML archive (doi:10.1016/j.jct.2005.07.003) come the findings set out here.

`C=CCCCCC` [1-heptene] + CCCCCCCC[n+]1ccn(C)c1.COCCOCCOS(=O)(=O)[O-]: the activity coefficient was 10.3 and 10.8 (288.15 K); 10.5 and 10.1 (298.15 K); 8.51 and 9.33 (313.15 K).

Turning to `C#CCCCCC` [1-heptyne] + CCCCCCCC[n+]1ccn(C)c1.COCCOCCOS(=O)(=O)[O-], the activity coefficient is 5.69 and 5.38 (288.15 K); 4.92 and 5.11 (298.15 K); 4.7 and 4.67 (313.15 K).

`c1ccccc1` [benzene] + CCCCCCCC[n+]1ccn(C)c1.COCCOCCOS(=O)(=O)[O-]: the activity coefficient by setting is: (288.15 K) 1.33 ± 0.14; (298.15 K) 1.33 and 1.46; (313.15 K) 1.37 and 1.35.

On to `C1CCCCCC1` [cycloheptane] + CCCCCCCC[n+]1ccn(C)c1.COCCOCCOS(=O)(=O)[O-], for which the activity coefficient is, setting by setting: (288.15 K) 9.65 and 10.1; (298.15 K) 9.02 and 8.83; (313.15 K) 7.53 and 7.45.

On to `C1CCCCC1` [cyclohexane] + CCCCCCCC[n+]1ccn(C)c1.COCCOCCOS(=O)(=O)[O-], for which the activity coefficient is 8.52 and 8.34 (288.15 K); 7.86 ± 0.83 (298.15 K); 6.83 and 6.79 (313.15 K).

On to `C1CCCCCCC1` [cyclooctane] + CCCCCCCC[n+]1ccn(C)c1.COCCOCCOS(=O)(=O)[O-], for which the activity coefficient (288.15 K) is 11.2 and 10.3; the activity coefficient (313.15 K) was 8.74 and 8.65.

For `C1CCCC1` [cyclopentane] + CCCCCCCC[n+]1ccn(C)c1.COCCOCCOS(=O)(=O)[O-], the activity coefficient is 6.4 and 6.14 (288.15 K); 5.1 and 5.86 (298.15 K); 5.24 and 5.16 (313.15 K).

On to `CCCCCCC` [heptane] + CCCCCCCC[n+]1ccn(C)c1.COCCOCCOS(=O)(=O)[O-], for which the activity coefficient (288.15 K) was 17.9 and 17.4; the activity coefficient (298.15 K) is 16.4 and 16; the activity coefficient (313.15 K) is 13.5 and 13.3.

`C=CCCCC` [hex-1-ene] + CCCCCCCC[n+]1ccn(C)c1.COCCOCCOS(=O)(=O)[O-]: the activity coefficient by setting is: (288.15 K) 8.61 and 8.47; (298.15 K) 8.14 and 8.33; (313.15 K) 7.47 and 7.74.

In the case of `CCCCCC` [hexane] + CCCCCCCC[n+]1ccn(C)c1.COCCOCCOS(=O)(=O)[O-], the activity coefficient was 14 ± 1.5 (288.15 K); 12.8 and 12.9 (298.15 K); 11.9 and 11.8 (313.15 K).

`CO` [methanol] + CCCCCCCC[n+]1ccn(C)c1.COCCOCCOS(=O)(=O)[O-]: the activity coefficient is, setting by setting: (288.15 K) 0.37 and 0.44; (298.15 K) 0.38 ± 0.05; (313.15 K) 0.36 and 0.38.

For the molecule `C=CCCCCCC` [oct-1-ene] + CCCCCCCC[n+]1ccn(C)c1.COCCOCCOS(=O)(=O)[O-], the activity coefficient reads like this: (288.15 K) 13.7 and 14; (298.15 K) 13.1 and 13.2; (313.15 K) 12 and 11.4.

For the molecule `CCCCCCCC` [octane] + CCCCCCCC[n+]1ccn(C)c1.COCCOCCOS(=O)(=O)[O-], the activity coefficient is, setting by setting: (288.15 K) 22.6 and 22.2; (298.15 K) 21.1 and 19.7; (313.15 K) 16.4 ± 1.7.

With `CCCCC` [pentane] + CCCCCCCC[n+]1ccn(C)c1.COCCOCCOS(=O)(=O)[O-], the activity coefficient runs as follows: (288.15 K) 12.6 and 11.6; (298.15 K) 10.6 and 10.3; (313.15 K) 10 and 9.5.
